Test results from PMC9335333 (Proceedings of the National Academy of Sciences of the …, 2022).

Target: T1, vesicular nucleotide transporter (VNUT) (Homo sapiens, UniProt Q9BYT1)
T1 sequence (Q9BYT1 1-436): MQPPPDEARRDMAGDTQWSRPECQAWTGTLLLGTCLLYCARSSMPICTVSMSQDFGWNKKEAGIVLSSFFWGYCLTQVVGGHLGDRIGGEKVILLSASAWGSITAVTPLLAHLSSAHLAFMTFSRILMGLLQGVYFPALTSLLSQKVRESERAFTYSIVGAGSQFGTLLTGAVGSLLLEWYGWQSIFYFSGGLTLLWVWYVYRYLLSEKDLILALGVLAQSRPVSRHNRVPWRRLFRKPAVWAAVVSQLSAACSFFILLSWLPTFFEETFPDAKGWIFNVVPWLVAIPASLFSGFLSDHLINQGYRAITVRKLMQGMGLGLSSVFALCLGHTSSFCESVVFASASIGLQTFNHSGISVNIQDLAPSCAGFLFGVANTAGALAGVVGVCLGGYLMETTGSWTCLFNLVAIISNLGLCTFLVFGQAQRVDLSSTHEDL
Experiment: [3H]-ATP uptake in proteoliposomes with purified human VNUT
Assay type: biochemical

`CC/C=C\C/C=C\C/C=C\C/C=C\C/C=C\CCCC(=O)O` [EPA, eicosapentaenoic acid] showed an IC50 of 67 nM.
